Source: US11666554B2, “Use of a carbamate compound to prevent, alleviate or treat visceralgia or pain arising from visceral disease” (SK BIOPHARMACEUTICALS CO., LTD., priority 2017, dated 2023)
Marks after values point to notes of the source that are not given here.

System: Male ICR mice
Assay: Acetic acid-induced writhing test
Format: in vivo
Conditions: for Number of writhing: mean ± standard error
Experimental: As a representative animal experimental model widely used to confirm the analgesic effect on visceral pain, an acetic acid-induced writhing test is used [T. J. Ness, Models of Visceral Nociception (1999) ILAR Journal 40: 119-128]. At this time, acetic acid is a chemical that is a stimulus used to induce pain, and when it is injected into the abdominal cavity of the mouse, characteristic writhing pain behaviors are induced in which due to the inflammatory pain caused in the peritoneum the mouse stretches both the forelimbs and the hind legs, and touches the abdomen to the floor or twists. However, when a drug having an analgesic effect, such as morphine, is injected into a mouse, the writhing pain behaviors of the mouse is reduced. As such, the degree of decreasing the writhing pain behaviors is measured to confirm the analgesic effect of the drug.
Male ICR mice (body weight: 24 to 30 g) were used in this experiment. The experimental animals were maintained at a light-and-darkness cycle of 12 hours, a temperature of 22 to 25° C., a relative humidity of 40 to 60%, and free access to water and food. For stabilization of animal behavior, the experimental animals were allowed to acclimate to the laboratory conditions for at least 1 hour before the test.
As a vehicle serving as the negative control, 30% PEG400 (v/v) was used, and Test Compound was dissolved in the vehicle and administered orally at doses of 3, 10 and 30 mg/kg. Morphine which is the positive control was dissolved in saline and administered subcutaneously at a dose of 10 mg/kg. The final dose of solution was 10 ml/kg.
After 1 hour of oral administration of the vehicle and Test Compound or 30 minutes after subcutaneous administration of morphine, the mice were gently restrained, and 0.8% (v/v) acetic acid solution was administered intraperitoneally to the abdomen of the mice. The mice were immediately returned to the observation box, and the number of writhing pain behaviors of the mice for 10 minutes was recorded.
The effect of the compound was expressed as the mean±standard error, and statistical significance was recognized when data differed by p<0.05 using one-way ANOVA and Dunnett's test.

Row | SMILES | Suppression rate compared to negative control (3 mg/kg p.o.) [%] | Number of writhing (3 mg/kg p.o., 1 hour before i.p. 0.8% acetic acid) [writes/10 minutes] | Suppression rate compared to negative control (10 mg/kg p.o.) [%] | Number of writhing (10 mg/kg p.o., 1 hour before i.p. 0.8% acetic acid) | Suppression rate compared to negative control (30 mg/kg p.o.) [%] | Number of writhing (30 mg/kg p.o., 1 hour before i.p. 0.8% acetic acid) | Suppression rate compared to negative control (10 mg/kg s.c.) [%] | Number of writhing (10 mg/kg s.c., 30 minutes before i.p. 0.8% acetic acid) | Suppression rate compared to negative control (10 mg/kg s.c., listed as morphine) [%]
1 | NC(=O)O[C@@H](Cn1ncnn1)c1ccccc1Cl [Test Compound, Carbamic acid (R)-1-(2-chlorophenyl)-2-tetrazol-2-yl-ethyl ester] | 25.8 | 17.3 ± 2.6 | 66.1 | 7.9 ± 2.4^1) writes/10 minutes | 100 | 0.0 ± 0.0^1) writes/10 minutes | – | – | –
2 | CN1CC[C@]23c4c5ccc(O)c4O[C@H]2[C@@H](O)C=C[C@H]3[C@H]1C5 [Morphine, reference compound] | – | – | – | – | – | – | 98.2 | 0.4 ± 0.3^1) writes/10 minutes | 98.2
